Assay results taken from patent US20260069599A1, “INHIBITORS OF BROMODOMAIN-CONTAINING PROTEIN 4 AND PHOSPHOINOSITIDE 3-KINASE” (Board of Regents of the University of Nebraska, priority 2022, published 2026).

Assays:
Type in all cases: cell-based, human
HD-MB03 cells = assay: Cell cycle analysis in HD-MB03 cells; settings: 5 μM, 48 hours; control 44.7%
Source text: FIGS. 3A-3F show the effect of MDP5 treatment on cell cycle analysis, induction of apoptosis, and colony formation assay in MB cells. […] Histograms show the quantitative analysis of cell cycle assay for DAOY (FIG. 3A) and HD-MB03 (FIG. 3B) cells (n=5; mean±S.D., p<0.05). […] FIG. 3C provides images of cells treated with the indicated compounds. […] FIGS. 3D and 3E provide graphs of the apoptotic assay showing higher numbers of apoptotic cells in MDP5 treated groups (n=5; mean±S.D.; p<0.05). FIG. 3F provides a graph of the relative expression of BCL2 and MYCN target genes after treatment, as determined by RT-PCR.
Cell cycle distribution was determined in proliferating MB cells. […] Cells were harvested with 0.25% EDTA-free trypsin (Gibco) and washed twice in ice-cold PBS. Control and treated cells (0.1×10^6) were stained with FxCycle™ PI/RNase Staining Solution (ThermoFisher Scientific) and analyzed for DNA content via flow cytometry.

HD-MB03 and DAOY cells = assay: Western blot of target proteins; settings: for GLI1 and GLI2 protein expression: HD-MB03 and DAOY cells
Protocol: FIGS. 4A and 4B provide images of western blot analyses of target proteins after HDMB03 and DAOY cells were incubated with 5.0 μM of the indicated compounds for 48 hours. FIG. 4C (HD-MB03) and 4D (DAOY) provide western blot images which show the effects of MDP5 treatment on target proteins including GLI1 and GLI2. FIG. 4E provides representative confocal images of DAOY and HD-MB03 spheroids after treatment with 5.0 μM MDP5. […] Spheroids were stained for live (calcein AM) and dead (ethidium homodimer-1) cells after 7 days of treatment. Scale bars=200 μm. […] Next, cells were incubated with APC-CD15 for 30 minutes on ice in the dark. Before FACS analysis, samples were washed thrice with a staining buffer. FIG. 4G provides a graph showing the quantitation of CD15+ cells (n=3; p<0.05, control vs. treatment groups).
The whole protein from each treated group was extracted using RIPA buffer containing a cocktail of protease inhibitors (Sigma-Aldrich) for protein level determination. Protein concentration was determined using a BCA assay (Peirce). Next, 40 μg protein was subject to SDS-PAGE in a 10% gel. Following the transfer of targeted proteins onto polyvinylidene difluoride sheets, the membranes were washed with Tris-buffered saline plus Tween® 20 (TTBS; cat. no. WLA025; Wanleibio Co., Ltd.) for 5 minutes and then blocked with skimmed milk powder solution for 1 hour. Primary antibodies against Gli1 (1:1000), Gli2 (1:1000), MYCN (1:1,000), p-MYCN (1:1,000), Bcl-2 (1:1000), Bax (1:1000), p-PI3K (1:500), PI3K (1:1000), p-Akt (1:500), Akt (1:1000), Cyclin D1 (1:1000), and β-actin (1:1,000) were added and the membranes were incubated at 4° C. overnight. After an additional four washes with TBST, secondary IgG antibodies conjugated to horseradish peroxidase (1:5,000) were incubated with the membranes for 45 minutes at 37° C. Following a further six washes with TBST, the blots were developed using ECL start Western blotting detection kit (GE Healthcare) and the results were recorded in the iBright™ FL100 (Invitrogen). The relative expression levels of these proteins in different groups were calculated with the iBright™ software.

DAOY cells = assay: Annexin V/PI apoptosis assay in DAOY cells; settings: 48 hours of treatment; untreated 25.61%
Protocol: For apoptosis assay, the cells were collected as above and stained with 500 μL 1× binding buffer containing 5 μL annexin V-FITC and 10 μL propidium iodide (PI) in the dark for 5 minutes. Flow cytometry (FACSCalibur™ cytometer, BD Biosciences) was performed to quantify and calculate the cell apoptosis rate. AV-FITC values were set horizontally, and PI values were set as vertical axes. All experiments were performed in triplicate.

DAOY and HDMB-03 cells = assay: Transwell migration assay; settings: vs control
Protocol: FIGS. 2A-2D show the effect of MDP5 treatment on cell viability and migration potential in MB cells. FIGS. 2A and 2B provide graphs of cell viability assays with DAOY cells (FIG. 2A) and HD-MB03 cells (FIG. 2B) with the indicated compounds. FIG. 2C provides images of the Transwell® migration assay and FIG. 2D provides quantitation of the Transwell® migration assay (top: DAOY cells; bottom: HD-MB03 cells). Cells were fixed in formalin and stained with 0.5% crystal violet for 30 minutes. Images were taken using a microscope at 20× objective. Stained cells were then dissolved in acetic acid solution and optical density (OD) was measured at 590 nm. Scale bar: 100 μm. **P<0.01 and ***P<0.001 vs Control.
Further, the effect of MDPS on cell migration was investigated.

MB cells = assay: Scratch (wound) cell migration assay; settings: 0 to 24 hours, vs untreated MB cells
Protocol: Regarding the cell migration, scratch distances and width closure were measured between images from time 0 to 24 hours. After 24 hours, the untreated MB cells migrated and covered approximately 50% to 60% of the wound area quantified at time zero. […] Initial wound edges marked initial cell migration and were used to identify the decrease in wound width throughout the experiment. Migration distances were shown separately during the period of 0-24 hours. A significant difference in migration distance was found for the treated group compared to the control, while no difference in motility was found within the treated groups.

SMILES	cells in the G1 phase, HD-MB03 (HD-MB03 cells) [%]	GLI1 and GLI2 protein expression (HD-MB03 and DAOY cells)	percentage of apoptotic cells, DAOY (DAOY cells) [%]	cells migrated in Transwell migration assay (DAOY and HDMB-03 cells)	cell migration into wound area (MB cells)	Cyclin D1, p-AKT (Ser473) and p-PI3K protein levels (HD-MB03 and DAOY cells; 5.0 μM, 48 hours)	p-MYCN (Ser54) level (HD-MB03 and DAOY cells; 5.0 μM, 48 hours)	GLI1 protein expression in HD-MB03 cells (HD-MB03 and DAOY cells; among treated HD-MB03 cells)	GLI2 protein accumulation (HD-MB03 and DAOY cells; compared with other treatments)
O=C(/C=C/N1CCOCC1)c1cccc(-c2cc3c(cc2Br)OCCO3)c1O [MDP1, (E)-1-(3-(7-bromo-2,3-dihydrobenzo [b][1,4]dioxin-6-yl)-2-hydroxyphenyl)-3-morpholinoprop-2-en-1-one]	26.2	decrease in levels of both proteins	61.31	decreased the amount of DAOY and HDMB-03 cells migrated	lesser migration				
O=c1cc(N2CCOCC2)oc2c(-c3ccc4c(c3)OCCO4)cccc12 [MDP5, 8-(2,3-dihydrobenzo [b][1,4]dioxin-6-yl)-2-morpholino-4H-chromen-4-one]	52.2	decrease in levels of both proteins	70.35	decrease migration significantly	lesser migration	reduced	explicitly induced	largest reduction in GLI1 protein expression	
O=c1cc(N2CCOCC2)oc2c(-c3ccc4c(c3)OCCO4)csc12 [SF2523, reference compound]	58.9		56.50	decreased the amount of DAOY and HDMB-03 cells migrated	lesser migration				exceeded all other treatment options in terms of lowering GLI2 protein accumulation
